Earlier results in PubChem BioAssay AID1259409 (Chemical Carcinogenesis Research Information System (CCRIS), 2018).

Test system: rodent chemically induced tumor inhibition, incidence and multiplicity
Test: CCRIS tumor inhibitor studies
Details: Route [Inhibitor]: ORAL, Species: RAT

For CC(=O)OC/C=C(C)/C=C/C=C(C)/C=C/C1=C(C)CCCC1(C)C, the “tumour outcome (control, treated, inhibition, significance)” value (Carcinogen: 7,12-DIMETHYLBENZ[A]ANTHRACENE, 57-97-6, Dose [Inhibitor]: 250 MG/KG DIET DAILY FOR 28 WK STARTING 2 WK BEFORE START OF CARCINOGEN TREATMENT AND CONTINUING FOR DURATION OF STUDY (, Strain/Sex: SPRAGUE-DAWLEY/FEMALE, Target Tissue: Type of Lesion: MAMMARY GLAND: TUMOR, Dose [Carcinogen]: 5 MG IN CORN OIL 1/WK FOR 3 WK, Promoter: NONE USED) is given as 90%, 47%, 48%, p<0.001, the “tumour outcome (control, treated, inhibition, significance)” value (Carcinogen: 7,12-DIMETHYLBENZ[A]ANTHRACENE, 57-97-6, Dose [Inhibitor]: 328 MG/KG DIET DAILY FOR 20 WK STARTING 3 D AFTER CARCINOGEN TREATMENT (STUDY DURATION: 26 WK), Strain/Sex: SPRAGUE-DAWLEY/FEMALE, Target Tissue: Type of Lesion: MAMMARY GLAND: CARCINOMA, Dose [Carcinogen]: 5 MG/ML SESAME OIL ONCE AT 53 D OF AGE, Promoter: NONE USED) is given as 85%, 60%, 29%, not significant and the “tumour outcome (control, treated, inhibition, significance)” value (Carcinogen: DIMETHYLBENZ[A]ANTHRACENE, 57-97-6, Dose [Inhibitor]: 0, 328 MG/KG DIET IN VEHICLE 2 MO PRIOR TO CARCINOGEN DOSE AND CONTINUED UNTIL CARCINOGEN ADMINISTRATION (STUDY DURATION, Strain/Sex: CD-1/FEMALE, Target Tissue: Type of Lesion: MAMMARY GLAND: ADENOCARCINOMA, Dose [Carcinogen]: 20 MG IN 1 ML SESAME OIL ONCE, Promoter: NONE USED) is given as 63%, 57%, 10%, not calculated. For the same molecule, the “tumour outcome (control, treated, inhibition, significance)” value (Carcinogen: DIMETHYLBENZ[A]ANTHRACENE, 57-97-6, Dose [Inhibitor]: 0, 328 MG/KG DIET IN VEHICLE 2 MO PRIOR TO CARCINOGEN DOSE AND CONTINUED UNTIL CARCINOGEN ADMINISTRATION (STUDY DURATION, Strain/Sex: CD-1/FEMALE, Target Tissue: Type of Lesion: MAMMARY GLAND: BENIGN TUMOR, Dose [Carcinogen]: 20 MG IN 1 ML SESAME OIL ONCE, Promoter: NONE USED) was 17%, 50%, -194%, p<0.05, the “tumour outcome (control, treated, inhibition, significance)” value (Carcinogen: ETHYLNITROSOUREA, 759-73-9, Dose [Inhibitor]: 0, 300000 IU KG IN 1:20 (VOLUME: VOLUME) SUNFLOWER OIL IN DIET 5 D/WK FOR LIFE (STUDY DURATION: 319 D), Strain/Sex: ALBINO/MALE,FEMALE, Target Tissue: Type of Lesion: NERVOUS SYSTEM: SCHWANNOMA, Dose [Carcinogen]: 75 MG/KG IN SALINE BY INTRAVENOUS INJECTION ONCE 21 D AFTER CONCEPTION) was 37/89 (42%), 14/50 (28%), 33%, not calculated and the “tumour outcome (control, treated, inhibition, significance)” value (Carcinogen: ETHYLNITROSOUREA, 759-73-9, Dose [Inhibitor]: 0, 300000 IU/KG IN 1:20 (VOLUME: VOLUME) SUNFLOWER OIL IN DIET 5 D/WK FOR LIFE (STUDY DURATION: 319 D), Strain/Sex: ALBINO/MALE,FEMALE, Target Tissue: Type of Lesion: BRAIN: GLIOMA OR ASTROCYTOMA, Dose [Carcinogen]: 75 MG/KG IN SALINE BY INTRAVENOUS INJECTION ONCE 21 D AFTER CONCEPTION) was 54/89 (61%), 38/50 (76%), -25%, not calculated. The “tumour outcome (control, treated, inhibition, significance)” value (Carcinogen: ETHYLNITROSOUREA, 759-73-9, Dose [Inhibitor]: 0, 300000 IU/KG IN 1:20 (VOLUME: VOLUME) SUNFLOWER OIL IN DIET 5 D/WK FOR LIFE (STUDY DURATION: 319 D), Strain/Sex: ALBINO/MALE,FEMALE, Target Tissue: Type of Lesion: KIDNEY: MESENCHYMAL TUMOR OR ADENOCARCINOMA, Dose [Carcinogen]: 75 MG/KG IN SALINE BY INTRAVENOUS INJECTION ONCE 21 D AFTER CONCEPTION) was 33/89 (37%), 14/50 (28%), 24%, not calculated, the “tumour outcome (control, treated, inhibition, significance)” value (Carcinogen: ETHYLNITROSOUREA, 759-73-9, Dose [Inhibitor]: 0, 300000 IU/KG IN 1:20 (VOLUME: VOLUME) SUNFLOWER OIL IN DIET 5 D/WK FOR LIFE (STUDY DURATION: 319 D), Strain/Sex: ALBINO/MALE,FEMALE, Target Tissue: Type of Lesion: SPINAL CORD: TUMOR, Dose [Carcinogen]: 75 MG/KG IN SALINE BY INTRAVENOUS INJECTION ONCE 21 D AFTER CONCEPTION) was 55/89 (62%), 26/50 (52%), 16%, not calculated and the “tumour outcome (control, treated, inhibition, significance)” value (Carcinogen: METHYLNITROSOUREA, 684-93-5, Dose [Inhibitor]: 0, 328 MG/KG DIET IN VEHICLE 2 MO PRIOR TO CARCINOGEN DOSE AND CONTINUED UNTIL CARCINOGEN ADMINISTRATION (STUDY DURATION, Strain/Sex: CD-1/FEMALE, Target Tissue: Type of Lesion: MAMMARY GLAND: ADENOCARCINOMA, Dose [Carcinogen]: 50 MG/KG BW ONCE, Promoter: NONE USED) was 57%, 72%), -26%, not calculated. For the same molecule, the “tumour outcome (control, treated, inhibition, significance)” value (Carcinogen: METHYLNITROSOUREA, 684-93-5, Dose [Inhibitor]: 0, 328 MG/KG DIET IN VEHICLE 2 MO PRIOR TO CARCINOGEN DOSE AND CONTINUED UNTIL CARCINOGEN ADMINISTRATION (STUDY DURATION, Strain/Sex: CD-1/FEMALE, Target Tissue: Type of Lesion: MAMMARY GLAND: BENIGN TUMOR, Dose [Carcinogen]: 50 MG/KG BW ONCE, Promoter: NONE USED) was 10%, 21%, -110%, not calculated.
